Source: patent US20240041899A1, “SOLID PREPARATION” (ASKA Pharmaceutical Co., Ltd., priority 2020, published 2024)

Experiments:
Assay type in all cases: in vivo
[1] = system: lower urinary tract obstruction model of rats (male); experiment: Test Example 2: urination function in lower urinary tract obstruction model of male rats; details: oral once a day 14 days, 10 mg/kg, in comparison with Group C (dutasteride 0.5 mg/kg)
Source text: A lower urinary tract obstruction model of rats was used as a test system. A test substance was orally administered to the lower urinary tract obstruction model repeatedly over 14 days to examine the action on the urination function in the lower urinary tract obstruction model. The lower urinary tract obstruction model is not a benign prostatic hyperplasia model with enlarged prostate.
More specifically, the rats (male, Crl:CD(SD), 8-week-old; Charles River Laboratories Japan, Inc.) were operated to form lower urinary tract obstruction and repeatedly received oral administration of the test substance at a frequency of once a day over 14 days. After the completion of the administration, each rat was subjected to bladder catheterization under anesthesia and cystometry under no anesthesia and was evaluated for the residual urine volume and the urination efficiency.
The test substances and the dosage in the test system (male rats with lower urinary tract obstruction) are as follows. • Solvent group (control group): 0.5 v/v % Polysorbate 80 solution, 10 mL/kg (n=8) • Group A: Compound A, 10 mg/kg (n=12) • Group C: Compound C (dutasteride), 0.5 mg/kg (n=11)

[2] = system: bladder specimen of high-week-old male rats; experiment: Test Example 3: isometric contraction test of bladder specimen from high-week-old male rats after oral dosing; details: 22-week-old male rats, oral once a day 2 weeks, 10 mg/kg, compared with Group C (dutasteride 0.3 mg/kg)
Source text: High-week-old male rats (22-week-old; Charles River Laboratories Japan, Inc.) were examined and evaluated for the relationship between the test substances and the bladder and urethra contraction reaction. Since the rats are high-week-old, the rats are a model in which the prostate is predicted to be enlarged.
A test substance was orally administered to the high-week-old male rats repeatedly at a frequency of once a day over two (2) weeks, and then, from each rat, a bladder specimen was extracted. The bladder specimen was suspended at a resting tension of about 9.8 mN in a constant-temperature Magnus tube (37° C.) filled with a physiological salt solution aerated with 95% 02-5% CO2 gas and was subjected to an isometric contraction test by applying a square-wave electrical field stimulation (EFS, Amplitude; 0.3 ms, Frequency; 1, 2, 5, 10, 20 Hz, Duration; 5 s); or Carbachol (CCH, 100 nmol/L to 100 μmol/L) and KCl (40, 80 mmol/L).
Solvent group (control group): 0.5 v/v % Polysorbate 80 solution, 10 mL/kg (n=6) • Group A: Compound A, 10 mg/kg (n=6) • Group C: Compound C (dutasteride), 0.3 mg/kg (n=6)

ovariectomized rats = experiment: Test Example 5: antiprogesterone activity, uterine weight associated with rat deciduoma formation
Description: For the compound A and the compound D (mifepristone), the antiprogesterone activity was measured. Specifically, a sex hormone and a test substance were repeatedly administered to ovariectomized rats as a test system to examine the antiprogesterone action (antiprogesterone activity) based on, as an index, the fluctuation of the uterine weight (the inhibitory action relative to the increase of the weight) associated with rat deciduoma formation.
More specifically, rats (female, Crl:CD(SD), 5-week-old: Charles River Laboratories Japan, Inc.) were subjected to ovariectomy, and from one (1) week after the ovariectomy, a high dose estrone of 5 μg/one animal was hypodermically administered to the rats once a day for three (3) days. From the day after one day rest period, the rats received, once a day over eight (8) days, hypodermic administration of a low dose estrone (1 μg/one animal), intramuscular administration of progesterone (6 mg/kg), and oral administration of a test substance. In the middle of the administration, on Day 4 of the start of administration, the rats were subjected to a stimulation treatment of decidualization reaction to the right uterus. The day after the final administration, the uterine weight (right uterine body) was measured (n=6). Group E was subjected to ovariectomy and a stimulation treatment of decidualization reaction but was not subjected to a hormone treatment.
Group E: rats with ovariectomy without hormone treatment 0.5 v/v % Polysorbate 80 solution, 10 mL/kg (n=6) • Solvent group (control group): 0.5 v/v % Polysorbate 80 solution, 10 mL/kg (n=6) • Group A3: Compound A, 3 mg/kg (n=6) • Group A10: Compound A, 10 mg/kg (n=6) • Group A30: Compound A, 30 mg/kg (n=6) • Group D: Compound D (mifepristone), 3 mg/kg (n=6)

CC(=O)O[C@]1(C(C)=O)C[C@@H](O)[C@H]2[C@@H]3C=C(Cl)C4=CC(=O)OC[C@]4(C)[C@H]3CC[C@@]21C [Compound A, 17α-acetoxy-6-chloro-15β-hydroxy-2-oxa-4,6-pregnadiene-3,20-dione]
urination function (the residual urine volume, the urination efficiency) [1]: strong improvement action | bladder contraction tension caused by square-wave electrical field stimulation or Carbachol and KCl [2]: significantly strong or has a strong directionality | inhibition at 3 mg/kg (ovariectomized rats; Rattus norvegicus, 192 h, ovariectomized rats, estrone + progesterone, oral 3 mg/kg once a day 8 days, compared with the solvent group, read-out: inhibition rate (increase of uterine weight, deciduoma formation)): 15% | inhibition at 10 mg/kg (ovariectomized rats; Rattus norvegicus, 192 h, ovariectomized rats, estrone + progesterone, oral 10 mg/kg once a day 8 days, compared with the solvent group, read-out: inhibition rate (increase of uterine weight, deciduoma formation)): 63% | inhibition at 30 mg/kg (ovariectomized rats; Rattus norvegicus, 192 h, ovariectomized rats, estrone + progesterone, oral 30 mg/kg once a day 8 days, compared with the solvent group, read-out: inhibition rate (increase of uterine weight, deciduoma formation)): 83.3% | antiprogesterone activity (ovariectomized rats; ovariectomized rats, 3, 10, 30 mg/kg oral): has an antiprogesterone activity
